Values quoted from earlier work in paper PMC12281572.
Values joined by “and” are separate entries in the source; they are usually repeats but may differ in a detail not shown here. Equal values may be shown once.

Experiment: FTIR, 4-fluorophenol as donor (the pK_BHX database, per the paper)
Conditions: CCl4; 25 C

Row | SMILES | pK_BHX (log10 Kf of the 1:1 H-bond complex with 4-fluorophenol, by FTIR)
1 | O=C(C(=O)c1ccccc1)c1ccccc1 | 0.44 log units
2 | O=CN1CCCC1 | 2.31 log units
3 | Cc1ccc(O)cc1 | 0.03 log units
4 | CC1CCCO1 (stereo not drawn) | 1.34 log units
5 | CCCO | 1.0 log units
6 | CC(=O)c1cccc([N+](=O)[O-])c1 | 0.18 log units
7 | CN(C)C(=O)c1ccc([N+](=O)[O-])cc1 | 1.9 log units
8 | c1ccc2cnccc2c1 | 1.94 log units
9 | c1cnccn1 | 0.92 log units
10 | C1CNCCN1 | 2.11 log units
11 | CC(=O)c1ccc([N+](=O)[O-])cc1 | 0.57 log units and 0.15 log units
12 | N#CN1CCCCC1 | 1.58 log units
13 | C=Cc1ccncc1 | 1.95 log units
14 | CCOC(C)=O | 1.07 log units
15 | Ic1ccccc1 | -0.64 log units
16 | CCOC(=O)OCC | 0.88 log units
17 | c1ccc(C(c2ccccc2)c2ccccc2)cc1 | -0.5 log units
18 | NCc1ccccc1 | 1.84 log units
19 | NCCCCN | 2.21 log units
20 | Cc1cccnc1 | 2.0 log units
21 | C1COC1 | 1.36 log units

Row | SMILES | pK_BHX (log10 Kf of the 1:1 H-bond complex with 4-fluorophenol, by FTIR)
22 | CC(=O)C(C)=O | 0.23 log units
23 | c1ccc2c(c1)cnc1ccccc12 | 1.87 log units
24 | CS(=O)c1ccc([N+](=O)[O-])cc1 (stereo not drawn) | 1.58 log units
25 | CN1C(CC(=O)c2ccccc2)CCCC1CC(O)c1ccccc1 (stereo not drawn) | 2.11 log units and 1.94 log units
26 | Oc1ccccc1 | -0.07 log units
27 | CN(C)C | 2.13 log units
28 | Cc1cc(C)nc(C)c1 | 2.29 log units
29 | O=C1CCCCCO1 | 1.63 log units
30 | O=Cc1ccc(Cl)cc1 | 0.63 log units
31 | CN(C)c1ccc(C=O)cc1 | 1.53 log units
32 | CCCN(CCC)CCC | 1.47 log units
33 | Cc1cccc(C)n1 | 2.14 log units
34 | c1ccc2ncccc2c1 | 1.89 log units
35 | COc1ccc(C)cc1 | 0.08 log units
36 | CCOC(=O)C(=O)OCC | 0.65 log units
37 | COc1ccccc1 | -0.07 log units
38 | NCCN | 2.25 log units
39 | O=S1OCCO1 | 0.87 log units
40 | COc1ccc(C(=O)c2ccc(OC)cc2)cc1 | 1.49 log units
41 | CCOC(=O)C=Cc1ccccc1 | 1.14 log units

Results, then the compound that gave them:

Row | pK_BHX (log10 Kf of the 1:1 H-bond complex with 4-fluorophenol, by FTIR) | SMILES
42 | 2.85 log units | [O-][n+]1ccc(-c2ccccc2)cc1
43 | 1.93 log units | c1ccc(C2CCCN2)cc1 (stereo not drawn)
44 | 2.17 log units | CCCCN(C=O)CCCC
45 | 0.4 log units | CC(C)(C)SC(C)(C)C
46 | 1.27 log units | CN(C)Cc1cccc(F)c1
47 | 2.65 log units | CCCCS(=O)CCCC
48 | 1.13 log units | Clc1ccc(N=C(Nc2ccccc2)c2ccccc2)cc1
49 | 0.68 log units | c1ccc(N2CCCCC2)cc1
50 | 2.24 log units | Cc1ccncc1C
51 | -0.14 log units | C1CSCCS1
52 | 2.21 log units | CNC(C)(C)C
53 | 2.59 log units | CC1=NCCC1
54 | 1.4 log units | Cc1cccc(NC(=Nc2ccccc2)c2ccccc2)c1
55 | 1.08 log units | CCOC(=O)CC
56 | 1.41 log units | COc1cccc(N=C(c2ccccc2)N(C)c2ccccc2)c1
57 | 0.65 log units | N#Cc1cccc(Br)c1
58 | 1.29 log units | c1ccc(N=C(Nc2ccccc2)c2ccccc2)cc1
59 | 2.09 log units | CN(C)C=NC#N
60 | 2.89 log units | CCN(CC)c1ccncc1
61 | 1.08 log units | COC(=O)c1ccc(OC)cc1

Row | pK_BHX (log10 Kf of the 1:1 H-bond complex with 4-fluorophenol, by FTIR) | SMILES
62 | 2.06 log units | CC(=NC(=S)N(C)C)N(C)C
63 | 0.97 log units | N#CC1CCCCC1
64 | 1.99 log units | CN(C)C=NCc1cccc(C(F)(F)F)c1
65 | 1.27 log units | NCc1cc(Cl)cc(Cl)c1
66 | 2.35 log units | CN(C)C=NCc1ccccc1
67 | 1.41 log units | COC(=O)N(c1ccccc1)c1ccccc1
68 | 1.01 log units | CCOC(=O)c1cccc(C)c1
69 | 2.47 log units | CCN(CC)C(C)=O
70 | 2.01 log units | CC(=Nc1ccc(C)cc1)Nc1ccc(C)cc1
71 | 0.41 log units | Cc1cccc(N(C)C)c1
72 | 3.59 log units | CCCCCCCCP(=O)(CCCCCCCC)CCCCCCCC
73 | 1.97 log units | c1ccc2cnncc2c1
74 | 1.52 log units | FC(F)(F)c1cccc(C2=NCCC2)c1
75 | 2.68 log units | c1cc(N2CCCCC2)ccn1
76 | -0.13 log units | C=CSCC
77 | 0.37 log units | CC(C)c1cccc(C(C)C)c1N
78 | 1.38 log units | CC(=Nc1ccccc1)N(C)c1ccc(Br)cc1
79 | -0.1 log units | CCC#CCC
80 | 0.9 log units | CCN(CC)c1ccc([N+](=O)[O-])cc1
81 | 1.49 log units | CC(=NC(=S)SCc1ccccc1)N(C)C

Row | pK_BHX (log10 Kf of the 1:1 H-bond complex with 4-fluorophenol, by FTIR) | SMILES
82 | 1.05 log units | Clc1cccc(N=C(Nc2ccccc2)c2ccccc2)c1
83 | 1.16 log units | COc1ccc(C(=S)N(C)C)cc1
84 | 2.24 log units | CCC(=O)NC
85 | 2.27 log units | CCCCCCCCN
86 | 2.16 log units | CC(=O)N1CCOCC1
87 | 1.61 log units | O=C(c1ccccc1)N(c1ccccc1)c1ccccc1
88 | -0.3 log units | CC(C)Cl
89 | 1.22 log units | CC1COC(=O)O1 (stereo not drawn)
90 | 2.58 log units | CN(N)c1ccncc1
91 | 1.36 log units | CC(=Nc1ccc(Br)cc1)N(C)c1ccccc1
92 | 1.06 log units | CCOC(=O)C12CC3CC(CC(C3)C1)C2
93 | 1.41 log units | O=C1CCCCCC1
94 | 1.27 log units | COc1ccc(C(=O)c2ccccc2)cc1
95 | 2.47 log units | CC(=O)N(C(C)C)C(C)C
96 | 1.98 log units | CCCN(C)C
97 | 0.3 log units | S=C1SCCS1
98 | 1.94 log units | CCc1ccccn1
99 | 2.16 log units | CCN(CC(=O)N(CC)c1ccccc1)c1ccccc1
